For 22 compounds, inhibition results are on record in US10435399B2, “HDAC6 inhibitory heterocyclic compound” (TAKEDA PHARMACEUTICAL COMPANY LIMITED, priority 2017, dated 2019).

The target of the assay is T1, HDAC6 enzyme (Homo sapiens, UniProt Q9UBN7).
T1 construct: transducing full length HDAC6 gene into Sf-9 insect cells; GST; purchased SignalChem; host or cells: Sf-9 insect cells
T1 sequence (Q9UBN7 1-1215): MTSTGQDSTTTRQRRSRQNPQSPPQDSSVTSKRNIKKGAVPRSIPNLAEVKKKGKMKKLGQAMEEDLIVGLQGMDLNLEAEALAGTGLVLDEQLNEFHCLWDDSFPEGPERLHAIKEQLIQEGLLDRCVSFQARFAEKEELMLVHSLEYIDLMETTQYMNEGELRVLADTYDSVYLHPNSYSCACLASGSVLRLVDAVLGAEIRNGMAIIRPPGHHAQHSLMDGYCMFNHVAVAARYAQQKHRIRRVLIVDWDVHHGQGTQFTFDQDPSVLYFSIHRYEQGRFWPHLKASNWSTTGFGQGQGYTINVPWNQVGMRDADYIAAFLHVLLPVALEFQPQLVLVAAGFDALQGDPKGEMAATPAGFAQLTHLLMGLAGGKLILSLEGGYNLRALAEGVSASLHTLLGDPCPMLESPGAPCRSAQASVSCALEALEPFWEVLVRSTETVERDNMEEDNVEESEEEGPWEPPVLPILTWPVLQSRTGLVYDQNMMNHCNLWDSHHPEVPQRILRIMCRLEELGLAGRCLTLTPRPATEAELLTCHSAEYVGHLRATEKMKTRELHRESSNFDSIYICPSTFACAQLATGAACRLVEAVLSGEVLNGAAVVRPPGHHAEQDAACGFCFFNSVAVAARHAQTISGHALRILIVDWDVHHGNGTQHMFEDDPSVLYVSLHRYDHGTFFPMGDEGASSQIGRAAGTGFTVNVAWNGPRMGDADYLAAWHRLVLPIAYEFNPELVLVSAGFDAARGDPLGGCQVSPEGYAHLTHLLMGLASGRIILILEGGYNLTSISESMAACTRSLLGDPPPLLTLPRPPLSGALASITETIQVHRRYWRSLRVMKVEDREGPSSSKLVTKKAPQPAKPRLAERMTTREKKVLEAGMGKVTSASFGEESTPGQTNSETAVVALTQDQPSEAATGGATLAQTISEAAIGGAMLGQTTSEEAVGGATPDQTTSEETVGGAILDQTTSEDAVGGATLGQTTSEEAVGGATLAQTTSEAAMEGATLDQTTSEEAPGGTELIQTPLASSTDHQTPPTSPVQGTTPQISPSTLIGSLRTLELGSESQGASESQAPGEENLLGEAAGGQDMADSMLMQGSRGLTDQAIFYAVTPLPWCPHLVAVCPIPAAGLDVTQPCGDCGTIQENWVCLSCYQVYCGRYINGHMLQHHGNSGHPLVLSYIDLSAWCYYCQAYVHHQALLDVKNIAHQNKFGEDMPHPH
The assay is described as follows: HDAC6 enzyme inhibitory activity (HDAC-Glo I/II Assay kit). It is filed as biochemical. Conditions: 10 μM; wells without enzyme = 100% inhibition; read-out: HDAC6 inhibitory rate (%) (10 μM). The method, boiled down: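 Test compound is preincubated 60 min at RT with full-length insect-cell HDAC6 in Tris-HCl pH 7.5 with 135 mM NaCl and 1 mM MgCl2. A 20 min room-temperature HDAC-Glo reaction follows, with luminescent read-out.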
With `Cn1nc(C(F)(F)F)cc1-c1cc(F)ccc1N1Cc2c(F)cc(-c3nnc(C(F)F)o3)cc2C1=O` [Example 388, 6-(5-(difluoro-methyl)-1,3,4-oxadiazol-2-yl)-4-fluoro-2-(4-fluoro-2-(1-methyl-3-(trifluoro-methyl)-1H-pyrazol-5-yl)phenyl) isoindolin-1-one], the inhibition at 10 µM turned out to be 101%. The figure for `Cn1nc(C(F)(F)F)cc1-c1cc(F)ccc1N1Cc2ccc(-c3nnc(C(F)F)o3)cc2C1=O` [Example 389, 6-(5-(difluoro-methyl)-1,3,4-oxadiazol-2-yl)-2-(4-fluoro-2-(1-methyl-3-(trifluoro-methyl)-1H-pyrazol-5-yl)phenyl) isoindolin-1-one] is 101%. For the compound `O=C1c2cc(-c3nnc(C(F)F)o3)cc(F)c2CN1c1ccccc1-c1cnn(C(F)F)c1` [Example 390, 6-(5-(difluoro-methyl)-1,3,4-oxadiazol-2-yl)-2-(2-(1-(difluoro-methyl)-1H-pyrazol-4-yl)phenyl)-4-fluoroisoindolin-1-one], the inhibition at 10 µM is 100%. As to `N#Cc1cccc(-c2ncccc2N2Cc3ccc(-c4nnc(C(F)F)o4)cc3C2=O)c1` [Example 391, 3-(3-(6-(5-(difluoromethyl)-1,3,4-oxadiazol-2-yl)-1-oxo-1,3-dihydro-2H-isoindol-2-yl)pyridin-2-yl) benzonitrile], the inhibition at 10 µM came to 100%. The figure for `Cn1cc(-c2ccccc2N2Cc3c(F)cc(-c4nnc(C(F)F)o4)cc3C2=O)cn1` [Example 392, 6-(5-(difluoro-methyl)-1,3,4-oxadiazol-2-yl)-4-fluoro-2-(2-(1-methyl-1H-pyrazol-4-yl)phenyl) isoindolin-1-one] is 99%; for `O=C1c2cc(-c3nnc(C(F)F)o3)cc(F)c2CN1c1ccccc1-c1cccc(F)c1` [Example 393, 6-(5-(difluoro-methyl)-1,3,4-oxadiazol-2-yl)-4-fluoro-2-(3′-fluorobiphenyl-2-yl)isoindolin-1-one] it is 99%. As to `Cn1nc(C(F)(F)F)cc1-c1ccccc1N1Cc2c(F)cc(-c3nnc(C(F)F)o3)cc2C1=O` [Example 394, 6-(5-(difluoro-methyl)-1,3,4-oxadiazol-2-yl)-4-fluoro-2-(2-(1-methyl-3-(trifluoro-methyl)-1H-pyrazol-5-yl)phenyl) isoindolin-1-one], the inhibition at 10 µM was 99%. As for `O=C1c2cc(-c3nnc(C(F)F)o3)cnc2CN1Cc1cccc(OC(F)F)c1` [Example 395, 6-(3-(difluoro-methoxy)benzyl)-3-(5-(difluoro-methyl)-1,3,4-oxadiazol-2-yl)-6,7-dihydro-5H-pyrrolo [3,4-b]pyridin-5-one], the inhibition at 10 µM was 99%. With `O=C1c2cc(-c3nnc(C(F)F)o3)ccc2CN1c1cccc(F)c1-c1cnn(C(F)F)c1` [Example 396, 6-(5-(difluoro-methyl)-1,3,4-oxadiazol-2-yl)-2-(2-(1-(difluoromethyl)-1H-pyrazol-4-yl)-3-fluorophenyl) isoindolin-1-one] the figure was 101%.

As for `O=C1c2cc(-c3nnc(C(F)F)o3)ccc2CN1c1cccc(F)c1-c1cccc(Cl)c1` [Example 397, 2-(3′-chloro-6-fluorobiphenyl-2-yl)-6-(5-(difluoro-methyl)-1,3,4-oxadiazol-2-yl) isoindolin-1-one], the inhibition at 10 µM is 100%.

In the case of `O=C1c2cc(-c3nnc(C(F)F)o3)ccc2CN1c1cccc(F)c1-c1cccc(F)c1` [Example 398, 2-(3′,6-difluoro-biphenyl-2-yl)-6-(5-(difluoro-methyl)-1,3,4-oxadiazol-2-yl) isoindolin-1-one], the inhibition at 10 µM amounted to 102%. The figure for `O=C1c2cc(-c3nnc(C(F)F)o3)ccc2CN1[C@@H]1CCOC[C@H]1NCC(F)(F)F` [Example 399, 6-(5-(difluoromethyl)-1,3,4-oxadiazol-2-yl)-2-((3S,4R)-3-((2,2,2-trifluoroethyl)amino)tetrahydro-2H-pyran-4-yl)isoindolin-1-one] is 101%; for `O=C1c2cc(-c3nnc(C(F)F)o3)cnc2CN1[C@@H]1CCOC[C@H]1NCC(F)(F)F` [Example 400, 3-(5-(difluoro-methyl)-1,3,4-oxadiazol-2-yl)-6-((3S,4R)-3-((2,2,2-trifluoro-ethyl)amino)tetrahydro-2H-pyran-4-yl)-6,7-dihydro-5H-pyrrolo[3,4-b] pyridin-5-one] it is 99%; for `N#Cc1cccc(-c2c(Cl)cccc2N2Cc3ccc(-c4nnc(C(F)F)o4)cc3C2=O)c1` [Example 401, 2′-chloro-6′-(6-(5-(difluoro-methyl)-1,3,4-oxadiazol-2-yl)-1-oxo-1,3-dihydro-2H-isoindol-2-yl) biphenyl-3-carbonitrile] it is 99%. In the case of `O=C1c2cc(-c3nnc(C(F)F)o3)ccc2CN1c1cccc(Cl)c1-c1cnn(C(F)F)c1` [Example 402, 2-(3-chloro-2-(1-(difluoro-methyl)-1H-pyrazol-4-yl)phenyl)-6-(5-(difluoro-methyl)-1,3,4-oxadiazol-2-yl) isoindolin-1-one], the inhibition at 10 µM was found to be 100%. The figure for `Cn1cc(-c2c(Cl)cccc2N2Cc3ccc(-c4nnc(C(F)F)o4)cc3C2=O)cn1` [Example 403, 2-(3-chloro-2-(1-methyl-1H-pyrazol-4-yl)phenyl)-6-(5-(difluoro-methyl)-1,3,4-oxadiazol-2-yl) isoindolin-1-one] is 102%; for `O=C1c2cc(-c3nnc(C(F)F)o3)ccc2CN1c1cccc(Cl)c1-c1cccc(F)c1` [Example 404, 2-(6-chloro-3′-fluoro-biphenyl-2-yl)-6-(5-(difluoro-methyl)-1,3,4-oxadiazol-2-yl) isoindolin-1-one] it is 100%.

For `O=C1c2cc(-c3nnc(C(F)F)o3)ccc2CN1c1ccc(Cl)cc1-c1cnn(C(F)F)c1` [Example 405, 2-(4-chloro-2-(1-(difluoro-methyl)-1H-pyrazol-4-yl)phenyl)-6-(5-(difluoro-methyl)-1,3,4-oxadiazol-2-yl) isoindolin-1-one], the inhibition at 10 µM is 101%.

In the case of `O=C1c2cc(-c3nnc(C(F)F)o3)cnc2CN1c1ccc(F)cc1Br` [Example 406, 6-(2-bromo-4-fluorophenyl)-3-(5-(difluoromethyl)-1,3,4-oxadiazol-2-yl)-6,7-dihydro-5H-pyrrolo[3,4-b]pyridin-5-one], the inhibition at 10 µM is 100%. The figure for `N#Cc1cccc(-c2cc(F)ccc2N2Cc3ncc(-c4nnc(C(F)F)o4)cc3C2=O)c1` [Example 407, 2′-(3-(5-(difluoro-methyl)-1,3,4-oxadiazol-2-yl)-5-oxo-5,7-dihydro-6H-pyrrolo[3,4-b]pyridin-6-yl)-5′-fluoro-biphenyl-3-carbonitrile] is 99%; for `O=C1c2cc(-c3nnc(C(F)F)o3)cnc2CN1c1ccc(F)cc1-c1cnn(C(F)F)c1` [Example 408, 3-(5-(difluoro-methyl)-1,3,4-oxadiazol-2-yl)-6-(2-(1-(difluoro-methyl)-1H-pyrazol-4-yl)-4-fluorophenyl)-6,7-dihydro-5H-pyrrolo[3,4-b] pyridin-5-one] it is 99%; for `O=C1c2cc(-c3nnc(C(F)F)o3)cnc2CN1c1ccc(F)cc1-c1cccc(F)c1` [Example 409, 6-(3′,5-difluoro-biphenyl-2-yl)-3-(5-(difluoro-methyl)-1,3,4-oxadiazol-2-yl)-6,7-dihydro-5H-pyrrolo [3,4-b]pyridin-5-one] it is 99%.
